By IC50 is commonly meant the concentration at which inhibition is half-maximal.

In the first experiment the test system is SREBP pathway. As to the kind of experiment: SREBP luciferase reporter gene system (SRE-luciferase assay). Format: cell-based, human. To be noted: Homo sapiens, Huh-7, 16 h, Huh-7/SRE-luc cells, sterol-deficient medium, 0.01-10 µM. The procedure:
Huh-7/SRE-luc cells were incubated in sterol-deficient medium (5% lipoprotein deficient serum, 2 µM lovastatin, 10 µM mevalonic acid) with corresponding concentrations of compounds for 16 hours. The Huh-7/SRE-luc cells were human hepatoma cell line Huh-7 stably expressing LDLR promotor-luciferase and green fluorescent protein (GFP). These cells were obtained by transfecting Huh-7 with pLDLR-promotor-luciferase and pEGFP-N1 plasmids, followed by screening under G418 antibiotic selection pressure. The Huh-7 cells were purchased from ATCC, the pLDLR-promotor-luciferase plasmid was obtained by molecular cloning methods, and the pEGFP-N1 plasmid was purchased from Addgene.
After compound treatment, the cells were lysed with lysis buffer (E397A, Promega). After the addition of luciferase substrate (E1500, Promega), the activity of SRE-driven luciferase was measured using a BioTek Synergy HTX microplate reader (including but not limited to this type of instrument). The fluorescence intensity of green fluorescent protein (EGFP) was also measured using the above BioTek microplate reader (including but not limited to this type of instrument) and served as an internal control. The ratio of SRE-driven luciferase activity divided by the fluorescence intensity of green fluorescent protein was used as an indicator of SREBP pathway activity. The test data for each test compound were analyzed using Prism software (with the DMSO-treated group as the reference to calculate the compound inhibition rate, fitted using the Prism log(inhibitor) vs. response--Variable slope (four-parameter) model, calculation formula: Y = Bottom + (Top - Bottom)/(1 + 10^((LogIC50 - X) × HillSlope))), to obtain the IC50 parameters of the compounds.
Using the method described in 1.1, the inhibitory effect of the compounds of the present disclosure on the SREBP pathway was tested. The concentration gradient for each compound was designed as 0.01, 0.03, 0.1, 0.3, 1.0, 3.0, and 10 µM, with the vehicle DMSO as the control.
In general terms: Reporter assays use an easily measured gene product as a stand-in for the process of interest.
With `COc1cccc(F)c1C(CCC[C@@H](C)[C@H]1CC[C@H]2[C@H]3[C@H](CC[C@]12C)[C@@]1(C)CC[C@H](O)[C@H](O)[C@@H]1CC3(F)F)=NO` (single isomer, unassigned) [Compound 211, [(1Z,5R)-5-[(1R,3aS,3bS,5aR,6R,7S,9aS,9bS,11aR)-4,4-difluoro-6,7-dihydroxy-9a,9b,11a-trimethylhexadecahydro-1H-cyclopenta[1,2-a]phenanthren-1-yl]-1-(2-fluoro-6-methoxyphenyl)hexylidene]hydroxylamine or [(1E,5R)-5-[(1R,3aS,3bS,5aR,6R,7S,9aR,9bS,11aR)-4,4-difluoro-6,7-dihydroxy-9a,11a-dimethylhexadecahydro-1H-cyclopenta[1,2-a]phenanthren-1-yl]-1-(2-fluoro-6-methoxyphenyl)hexylidene]hydroxylamine], the IC50 amounted to 0.08 µM.

For the compound `COc1cccc(F)c1[C@@H](F)CCC[C@@H](C)[C@H]1CC[C@H]2[C@H]3[C@H](CC[C@]12C)[C@@]1(C)CC[C@H](O)[C@H](O)[C@@H]1CC3(F)F` (single isomer, unassigned) [Compound 215], the IC50 was found to be 3.57 µM.

In the case of `C[C@H](CCCC1(O)CC1)[C@H]1CC[C@H]2[C@H]3[C@H](CC[C@]12C)[C@@]1(C)CC[C@H](O)[C@H](O)[C@@H]1CC3(F)F` [Compound 93, (1R,3aS,3bS,5aR,6R,7S,9aR,9bS,11aR)-4,4-difluoro-1-[(2R)-5-(hydroxycyclopropyl)pentan-2-yl]-9a,11a-dimethylhexadecahydro-1H-cyclopenta[1,2-a]phenanthrene-6,7-diol], the IC50 is 0.613 µM.

`C[C@H](CCCC(O)c1nccs1)[C@H]1CC[C@H]2C3=C(F)C[C@H]4[C@@H](O)[C@@H](O)CC[C@]4(C)[C@H]3CC[C@]12C` (stereo partly drawn) [Compound 90, (1R,3aR,5aR,6R,7S,9aR,9bR,11aR)-4-fluoro-1-[(2R)-6-hydroxy-6-(1,3-thiazol-2-yl)hexan-2-yl]-9a,11a-dimethyl-2,3,3a,5,5a,6,7,8,9,9a,9b,10,11,11a-tetradecahydro-1H-cyclopenta[1,2-a]phenanthrene-6,7-diol]: the IC50 was 0.379 µM.

`C[C@H](CCC[C@@H](O)c1cccc2c1cnn2C)[C@H]1CC[C@H]2C3=C(F)C[C@H]4[C@@H](O)[C@@H](O)CC[C@]4(C)[C@H]3CC[C@]12C` [Compound 253, (1R,3aR,5aR,6R,7S,9aR,9bR,11aR)-4-fluoro-1-[(2R,6R)-6-hydroxy-6-(1-methylindazol-4-yl)hexan-2-yl]-9a,11a-dimethyl-2,3,3a,5,5a,6,7,8,9,9a,9b,10,11,11a-tetradecahydro-1H-cyclopenta[1,2-a]phenanthrene-6,7-diol]: the IC50 turned out to be 0.016 µM.

Regarding `C[C@H](CCCC(O)c1ccc(F)nc1F)[C@H]1CC[C@H]2C3=C(F)C[C@H]4[C@@H](O)[C@@H](O)CC[C@]4(C)[C@H]3CC[C@]12C` (stereo partly drawn) [Compound 147, (1R,3aR,5aR,6R,7S,9aR,9bR,11aR)-1-[(2R)-6-(2,6-difluoropyridin-3-yl)-6-hydroxyhexan-2-yl]-4-fluoro-9a,11a-dimethyl-2,3,3a,5,5a,6,7,8,9,9a,9b,10,11,11a-tetradecahydro-1H-cyclopenta[1,2-a]phenanthrene-6,7-diol], the concentration for half-maximal inhibition (IC50) amounted to 0.19 µM.

In the case of `COc1cc(F)c([C@@H](O)CCC[C@@H](C)[C@H]2CC[C@H]3[C@H]4[C@H](CC[C@]23C)[C@@]2(C)CC[C@H](O)[C@H](O)[C@@H]2CC4(F)F)c(F)n1` (single isomer, unassigned) [Compound 238], the IC50 amounted to 0.289 µM.

Consider `COc1ccc(C(O)CCC[C@@H](C)[C@H]2CC[C@H]3C4=C(F)C[C@H]5[C@@H](O)[C@@H](O)CC[C@]5(C)[C@H]4CC[C@]23C)cc1` (stereo partly drawn) [Compound 51, (1R,3aR,5aR,6R,7S,9aR,9bR,11aR)-4-fluoro-1-[(2R)-6-hydroxy-6-(4-methoxyphenyl)hexan-2-yl]-9a,11a-dimethyl-2,3,3a,5,5a,6,7,8,9,9a,9b,10,11,11a-tetradecahydro-1H-cyclopenta[1,2-a]phenanthrene-6,7-diol], for which the IC50 is 0.212 µM.

Turning to `COc1cc(F)ccc1[C@H](O)CCC[C@@H](C)[C@H]1CC[C@H]2C3=C(F)C[C@H]4[C@@H](O)[C@@H](O)CC[C@]4(C)[C@H]3CC[C@]12C` [Compound 132, (1R,3aR,5aR,6R,7S,9aR,9bR,11aR)-4-fluoro-1-[(2R,6R)-6-(4-fluoro-2-methoxyphenyl)-6-hydroxyhexan-2-yl]-9a,11a-dimethyl-2,3,3a,5,5a,6,7,8,9,9a,9b,10,11,11a-tetradecahydro-1H-cyclopenta[1,2-a]phenanthrene-6,7-diol], the IC50 came to 0.096 µM.

`COc1ccc(F)c(C(O)CCC[C@@H](C)[C@H]2CC[C@H]3C4=C(F)C[C@H]5[C@@H](O)[C@@H](O)CC[C@]5(C)[C@H]4CC[C@]23C)c1` (stereo partly drawn) [Compound 174, (1R,3aR,5aR,6R,7S,9aR,9bR,11aR)-4-fluoro-1-[(2R)-6-(2-fluoro-5-methoxyphenyl)-6-hydroxyhexan-2-yl]-9a,11a-dimethyl-2,3,3a,5,5a,6,7,8,9,9a,9b,10,11,11a-tetradecahydro-1H-cyclopenta[1,2-a]phenanthrene-6,7-diol]: the IC50 came to 0.148 µM.

`C[C@H](CCCC(O)c1cnc2c(c1)OC(F)(F)O2)[C@H]1CC[C@H]2[C@H]3[C@H](CC[C@]12C)[C@@]1(C)CC[C@H](O)[C@H](O)[C@@H]1CC3(F)F` (single isomer, unassigned) [Compound 285]: the IC50 amounted to 0.253 µM.

In the case of `C[C@H](CCCC(O)c1ccccc1F)[C@H]1CC[C@H]2[C@H]3[C@H](CC[C@]12C)[C@@]1(C)CC[C@H](O)CC1CC3(F)F` (stereo partly drawn) [Compound 74, (1R,3aS,3bR,7S,9aS,9bS,11aR)-4,4-difluoro-1-[(2R)-6-(2-fluorophenyl)-6-hydroxyhexan-2-yl]-9a,11a-dimethylhexadecahydro-1H-cyclopenta[1,2-a]phenanthren-7-ol], the IC50 was 0.68 µM.

In the case of `COc1ccc(C(O)CCC[C@@H](C)[C@H]2CC[C@H]3[C@H]4[C@H](CC[C@]23C)[C@@]2(C)CC[C@H](O)[C@H](O)[C@@H]2CC4(F)F)c(OC)c1` (stereo partly drawn) [Compound 183, (1R,3aS,3bS,5aR,6R,7 S,9aR,9bS,11aR)-1-[(2R)-6-(2,4-Dimethoxyphenyl)-6-hydroxyhexan-2-yl]-4,4-difluoro-9a,11a-dimethylhexadecahydro-1H-cyclopenta[1,2-a]phenanthrene-6,7-diol], the IC50 is 0.141 µM.

In the case of `C[C@H](CCC(=O)N(C)c1ccccc1F)[C@H]1CC[C@H]2C3=C(F)C[C@H]4[C@@H](O)[C@@H](O)CC[C@]4(C)[C@H]3CC[C@]12C` [Compound 96, (4R)-4-[(1R,3aR,5aR,6R,7S,9aR,9bR,11aR)-4-fluoro-6,7-dihydroxy-9a,11a-dimethyl-2,3,3a,5,5a,6,7,8,9,9a,9b,10,11,11a-tetradecahydro-1H-cyclopenta[1,2-a]phenanthren-1-yl]-N-(2-fluorophenyl)-N-methylpentanamide], the IC50 is 0.34 µM.

Staying with this experiment, now noted: Huh-7/SRE-luc cells, sterol-deficient medium, 16 hours, 0.01-10 µM.
On to `C[C@H](CCCC(O)c1cncc2c1cnn2C)[C@H]1CC[C@H]2[C@H]3[C@H](CC[C@]12C)[C@@]1(C)CC[C@H](O)[C@H](O)[C@@H]1CC3(F)F` (single isomer, unassigned) [Compound 288, (1R,3aS,3bS,5aR,6R,7S,9aR,9bS,11aR)-4,4-difluoro-1-[(2R,6R)-6-hydroxy-6-(1-methylpyrazolo[3,4-c]pyridin-4-yl)hexan-2-yl]-9a,11a-dimethylhexadecahydro-1H-cyclopenta[1,2-a]phenanthrene-6,7-diol or (1R,3aS,3bS,5aR,6R,7S,9aR,9bS,11aR)-4,4-difluoro-1-[(2R,6S)-6-hydroxy-6-(1-methylpyrazolo[3,4-c]pyridin-4-yl)hexan-2-yl]-9a,11a-dimethylhexadecahydro-1H-cyclopenta[1,2-a]phenanthrene-6,7-diol], for which the IC50 came to 0.388 µM.

As to `C[C@H](CCC[C@@H](O)c1cc2ccccc2o1)[C@H]1CC[C@H]2[C@H]3[C@H](CC[C@]12C)[C@@]1(C)CC[C@H](O)[C@H](O)[C@@H]1CC3(F)F` [Compound 322, (1R,3aS,3bS,5aR,6R,7S,9aR,9bS,11aR)-1-[(2R,6R)-6-(1-benzofuran-2-yl)-6-hydroxyhexan-2-yl]-4,4-difluoro-9a,11a-dimethylhexadecahydro-1H-cyclopenta[1,2-a]phenanthrene-6,7-diol], the IC50 was determined as 0.339 µM.

For `C[C@H](CCCC(O)c1cccc2nnn(C)c12)[C@H]1CC[C@H]2[C@H]3[C@H](CC[C@]12C)[C@@]1(C)CC[C@H](O)[C@H](O)[C@@H]1CC3(F)F` (single isomer, unassigned) [Compound 278, (1R,3aS,3bS,5aR,6R,7S,9aR,9bS,11aR)-4,4-difluoro-1-[(2R,6R)-6-hydroxy-6-(3-methylbenzo[d][1,2,3]triazol-4-yl)hexan-2-yl]-9a,11a-dimethylhexadecahydro-1H-cyclopenta[1,2-a]phenanthrene-6,7-diol or (1R,3aS,3bS,5aR,6R,7S,9aR,9bS,11aR)-4,4-Difluoro-1-[(2R,6S)-6-hydroxy-6-(3-methylbenzo[d][1,2,3]triazol-4-yl)hexan-2-yl]-9a,11a-dimethylhexadecahydro-1H-cyclopenta[1,2-a]phenanthrene-6,7-diol], the IC50 was 0.189 µM.

The values above are taken from patent publication EP4752152A1, “STEROID COMPOUND, AND PREPARATION METHOD THEREFOR AND USE THEREOF” (Cholesgen (Shanghai) Co.Ltd., priority 2023, dated 2025).
